Values of other authors, collected in US20140255430A1, “METHODS AND REAGENTS FOR DETECTION AND TREATMENT OF ESOPHAGEAL METAPLASIA” (NATIONAL UNIVERSITY OF SINGAPORE, priority 2010, published 2014).

Target: T1, PPARgamma (Homo sapiens, UniProt P37231)
T1 sequence (P37231 1-505): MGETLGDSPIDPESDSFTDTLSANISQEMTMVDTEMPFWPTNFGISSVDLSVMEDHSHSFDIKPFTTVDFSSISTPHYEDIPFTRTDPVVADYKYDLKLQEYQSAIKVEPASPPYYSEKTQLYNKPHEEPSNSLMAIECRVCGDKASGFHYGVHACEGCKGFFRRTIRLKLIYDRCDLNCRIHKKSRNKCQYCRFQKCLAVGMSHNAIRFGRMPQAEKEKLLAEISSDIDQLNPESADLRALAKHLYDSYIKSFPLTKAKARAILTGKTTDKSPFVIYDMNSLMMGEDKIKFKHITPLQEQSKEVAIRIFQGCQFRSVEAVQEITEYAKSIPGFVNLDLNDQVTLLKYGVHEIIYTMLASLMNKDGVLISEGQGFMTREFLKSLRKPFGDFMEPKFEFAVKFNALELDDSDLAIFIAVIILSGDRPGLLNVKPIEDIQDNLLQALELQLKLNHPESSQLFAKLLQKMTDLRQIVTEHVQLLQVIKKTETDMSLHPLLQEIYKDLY
Conditions: irreversible inhibitor

- IC50 for suppression of PPARgamma: nanomolar
Compound: O=C(Nc1ccccc1)c1cc([N+](=O)[O-])ccc1Cl [GW-9662, 2-Chloro-5-nitro-N-phenyl-benzamide]
